Assays:
[1] = target: Serine/threonine-protein kinase TBK1 (Homo sapiens) (UniProt Q9UHD2); conditions: Compound concentration 1000.0 nM
[2] = target: Rho-associated protein kinase 2 (Homo sapiens) (UniProt O75116); conditions: Compound concentration 1000.0 nM
[3] = system: Receptor-type tyrosine-protein kinase FLT3 (Homo sapiens), P36888 [UNDEFINED MUTATION]; conditions: Compound concentration 1000.0 nM
[4] = target: Serine/threonine-protein kinase haspin (Homo sapiens) (UniProt Q8TF76); conditions: Compound concentration 1000.0 nM
[5] = target: SRSF protein kinase 3 (Homo sapiens) (UniProt Q9UPE1); conditions: Compound concentration 1000.0 nM
[6] = target: Cyclin-dependent kinase 7 (Homo sapiens) (UniProt P50613); conditions: Compound concentration 1000.0 nM
[7] = target: Serine/threonine-protein kinase 24 (Homo sapiens) (UniProt Q9Y6E0); conditions: Compound concentration 1000.0 nM
[8] = system: Tyrosine-protein kinase ABL1 (Homo sapiens), P00519 [H396P]; conditions: Compound concentration 1000.0 nM
[9] = target: Cyclin-dependent kinase 14 (Homo sapiens) (UniProt O94921); conditions: Compound concentration 1000.0 nM
[10] = target: Inhibitor of nuclear factor kappa-B kinase subunit epsilon (Homo sapiens) (UniProt Q14164); conditions: Compound concentration 1000.0 nM
[11] = target: Transient receptor potential cation channel subfamily M member 6 (Homo sapiens) (UniProt Q9BX84); conditions: Compound concentration 1000.0 nM
[12] = target: Calcium/calmodulin-dependent protein kinase type 1 (Homo sapiens) (UniProt Q14012); conditions: Compound concentration 1000.0 nM
[13] = target: Sodium-dependent dopamine transporter (Homo sapiens) (UniProt Q01959); conditions: Compound concentration 10.0 uM
[14] = target: Insulin-like growth factor 1 receptor (Homo sapiens) (UniProt P08069); conditions: Compound concentration 1000.0 nM
[15] = target: Serine/threonine-protein kinase PAK 2 (Homo sapiens) (UniProt Q13177); conditions: Compound concentration 1000.0 nM
[16] = system: Epidermal growth factor receptor (Homo sapiens), P00533 [G719S]; conditions: Compound concentration 1000.0 nM
[17] = target: Vascular endothelial growth factor receptor 3 (Homo sapiens) (UniProt P35916); conditions: Compound concentration 1000.0 nM
[18] = target: Testis-specific serine/threonine-protein kinase 1 (Homo sapiens) (UniProt Q9BXA7); conditions: Compound concentration 1000.0 nM
[19] = target: Alpha-2B adrenergic receptor (Homo sapiens) (UniProt P18089); conditions: Compound concentration 10.0 uM
[20] = target: Kappa-type opioid receptor (Homo sapiens) (UniProt P41145); conditions: Compound concentration 10.0 uM
[21] = target: Myosin light chain kinase, smooth muscle (Homo sapiens) (UniProt Q15746); conditions: Compound concentration 1000.0 nM
[22] = target: Serine/threonine-protein kinase PAK 5 (Homo sapiens) (UniProt Q9P286); conditions: Compound concentration 1000.0 nM
[23] = target: Ephrin type-A receptor 5 (Homo sapiens) (UniProt P54756); conditions: Compound concentration 1000.0 nM
[24] = target: Casein kinase II subunit alpha (Homo sapiens) (UniProt P68400); conditions: Compound concentration 1000.0 nM
[25] = system: Phosphatidylinositol 4,5-bisphosphate 3-kinase catalytic subunit alpha isoform (Homo sapiens), P42336 [M1043I]; conditions: Compound concentration 1000.0 nM
[26] = target: Cyclin-dependent kinase 17 (Homo sapiens) (UniProt Q00537); conditions: Compound concentration 1000.0 nM
[27] = target: Receptor tyrosine-protein kinase erbB-2 (Homo sapiens) (UniProt P04626); conditions: Compound concentration 1000.0 nM
[28] = target: Serine/threonine-protein kinase ICK (Homo sapiens) (UniProt Q9UPZ9); conditions: Compound concentration 1000.0 nM
[29] = system: Receptor-type tyrosine-protein kinase FLT3 (Homo sapiens), P36888 [R834Q]; conditions: Compound concentration 1000.0 nM
[30] = system: Tyrosine-protein kinase ABL1 (Homo sapiens), P00519 [T315I]; conditions: Compound concentration 1000.0 nM
[31] = target: Serine/threonine-protein kinase Chk2 (Homo sapiens) (UniProt O96017); conditions: Compound concentration 1000.0 nM
[32] = target: Casein kinase I isoform epsilon (Homo sapiens) (UniProt P49674); conditions: Compound concentration 1000.0 nM
[33] = target: Calcium-dependent protein kinase 1 (Plasmodium falciparum) (UniProt P62344); conditions: Compound concentration 1000.0 nM
[34] = target: Serine/threonine-protein kinase ULK3 (Homo sapiens) (UniProt Q6PHR2); conditions: Compound concentration 1000.0 nM
[35] = target: Ephrin type-B receptor 3 (Homo sapiens) (UniProt P54753); conditions: Compound concentration 1000.0 nM
[36] = target: Mitogen-activated protein kinase 9 (Homo sapiens) (UniProt P45984); conditions: Compound concentration 1000.0 nM
[37] = target: Macrophage-stimulating protein receptor (Homo sapiens) (UniProt Q04912); conditions: Compound concentration 1000.0 nM
[38] = target: Homeodomain-interacting protein kinase 1 (Homo sapiens) (UniProt Q86Z02); conditions: Compound concentration 1000.0 nM
[39] = system: Epidermal growth factor receptor (Homo sapiens), P00533 [G719C]; conditions: Compound concentration 1000.0 nM
[40] = target: Homeodomain-interacting protein kinase 2 (Homo sapiens) (UniProt Q9H2X6); conditions: Compound concentration 1000.0 nM
[41] = target: Ribosomal protein S6 kinase alpha-3 (Homo sapiens) (UniProt P51812); conditions: Compound concentration 1000.0 nM
[42] = target: TRAF2 and NCK-interacting protein kinase (Homo sapiens) (UniProt Q9UKE5); conditions: Compound concentration 1000.0 nM
[43] = target: GABA-A receptor; anion channel (Rattus norvegicus) (UniProt O09028+P15431+P18506+P18508+P19969+P20236+P23574+P23576+P28471+P28473+P30191+P62813+P63079+P63138+Q91ZM7+Q9ES14); conditions: Compound concentration 10.0 uM
[44] = target: NUAK family SNF1-like kinase 1 (Homo sapiens) (UniProt O60285); conditions: Compound concentration 1000.0 nM

Sequence of SRSF protein kinase 3 (Homo sapiens) (Q9UPE1 whole entry): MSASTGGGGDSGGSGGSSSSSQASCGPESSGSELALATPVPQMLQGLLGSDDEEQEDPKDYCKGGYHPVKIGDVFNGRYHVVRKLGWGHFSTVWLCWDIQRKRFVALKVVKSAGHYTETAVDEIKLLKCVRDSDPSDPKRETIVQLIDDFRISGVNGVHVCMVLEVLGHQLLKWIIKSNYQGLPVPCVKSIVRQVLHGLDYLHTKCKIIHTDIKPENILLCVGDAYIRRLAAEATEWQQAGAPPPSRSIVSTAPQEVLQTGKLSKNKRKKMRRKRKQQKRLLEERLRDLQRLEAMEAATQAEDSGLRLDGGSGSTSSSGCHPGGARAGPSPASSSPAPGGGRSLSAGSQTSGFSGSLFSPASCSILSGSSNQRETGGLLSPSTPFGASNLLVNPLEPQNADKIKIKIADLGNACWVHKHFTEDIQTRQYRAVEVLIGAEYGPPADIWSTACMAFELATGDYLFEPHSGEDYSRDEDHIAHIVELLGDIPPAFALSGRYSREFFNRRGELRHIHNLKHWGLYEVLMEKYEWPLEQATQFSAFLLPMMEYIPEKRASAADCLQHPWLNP
Sequence of Serine/threonine-protein kinase PAK 5 (Homo sapiens) (Q9P286 whole entry, looked up): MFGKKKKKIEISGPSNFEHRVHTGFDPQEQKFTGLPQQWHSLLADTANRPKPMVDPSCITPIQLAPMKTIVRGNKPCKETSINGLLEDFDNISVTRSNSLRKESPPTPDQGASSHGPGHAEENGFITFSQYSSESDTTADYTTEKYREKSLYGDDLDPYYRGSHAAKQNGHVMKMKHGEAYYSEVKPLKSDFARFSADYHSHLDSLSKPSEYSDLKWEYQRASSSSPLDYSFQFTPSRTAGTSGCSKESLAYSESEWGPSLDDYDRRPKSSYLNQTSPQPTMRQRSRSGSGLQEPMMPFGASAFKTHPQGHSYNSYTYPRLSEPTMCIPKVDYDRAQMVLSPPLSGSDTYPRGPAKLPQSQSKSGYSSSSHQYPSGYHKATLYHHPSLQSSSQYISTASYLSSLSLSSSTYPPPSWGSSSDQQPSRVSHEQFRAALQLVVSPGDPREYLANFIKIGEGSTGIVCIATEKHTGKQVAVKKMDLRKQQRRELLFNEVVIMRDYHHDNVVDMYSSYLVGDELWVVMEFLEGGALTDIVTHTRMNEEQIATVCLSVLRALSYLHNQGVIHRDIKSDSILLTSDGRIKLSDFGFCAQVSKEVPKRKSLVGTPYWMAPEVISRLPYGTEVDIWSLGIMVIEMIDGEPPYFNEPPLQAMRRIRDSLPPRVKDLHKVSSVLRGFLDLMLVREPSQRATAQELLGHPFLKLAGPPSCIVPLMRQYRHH
Sequence of Homeodomain-interacting protein kinase 1 (Homo sapiens) (Q86Z02 whole entry, looked up): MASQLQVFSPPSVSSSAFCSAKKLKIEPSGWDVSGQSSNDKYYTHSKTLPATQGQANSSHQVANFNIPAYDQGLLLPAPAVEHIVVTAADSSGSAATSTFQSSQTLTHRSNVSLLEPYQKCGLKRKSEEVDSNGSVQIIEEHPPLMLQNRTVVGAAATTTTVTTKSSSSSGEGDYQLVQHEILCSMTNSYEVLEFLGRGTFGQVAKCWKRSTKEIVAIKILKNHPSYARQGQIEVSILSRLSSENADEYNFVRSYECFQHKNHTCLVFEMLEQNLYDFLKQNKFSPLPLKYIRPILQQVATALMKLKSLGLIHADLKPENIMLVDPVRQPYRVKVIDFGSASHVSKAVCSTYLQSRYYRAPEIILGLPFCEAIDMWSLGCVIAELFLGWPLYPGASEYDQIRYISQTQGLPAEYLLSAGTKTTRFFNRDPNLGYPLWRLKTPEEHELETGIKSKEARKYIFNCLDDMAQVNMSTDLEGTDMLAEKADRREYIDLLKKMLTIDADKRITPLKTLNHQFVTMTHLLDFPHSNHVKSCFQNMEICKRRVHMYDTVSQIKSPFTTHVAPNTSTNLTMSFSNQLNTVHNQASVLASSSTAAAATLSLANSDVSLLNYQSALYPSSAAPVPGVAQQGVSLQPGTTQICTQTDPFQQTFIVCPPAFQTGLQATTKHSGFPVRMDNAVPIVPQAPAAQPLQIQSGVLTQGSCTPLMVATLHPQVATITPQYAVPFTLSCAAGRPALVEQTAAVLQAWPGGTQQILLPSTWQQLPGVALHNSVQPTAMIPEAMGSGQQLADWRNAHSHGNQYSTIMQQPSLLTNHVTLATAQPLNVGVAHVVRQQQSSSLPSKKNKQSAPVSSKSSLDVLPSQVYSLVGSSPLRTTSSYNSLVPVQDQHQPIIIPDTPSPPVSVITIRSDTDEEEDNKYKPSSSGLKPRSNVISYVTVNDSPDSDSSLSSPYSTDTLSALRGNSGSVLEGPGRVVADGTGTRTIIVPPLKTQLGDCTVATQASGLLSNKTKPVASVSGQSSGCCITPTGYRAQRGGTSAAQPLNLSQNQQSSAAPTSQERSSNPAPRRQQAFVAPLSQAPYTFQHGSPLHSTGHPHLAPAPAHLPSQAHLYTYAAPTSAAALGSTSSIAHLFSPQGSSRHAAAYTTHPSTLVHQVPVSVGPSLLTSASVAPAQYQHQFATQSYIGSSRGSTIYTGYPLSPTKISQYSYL
Sequence of Mitogen-activated protein kinase 9 (Homo sapiens) (P45984 whole entry, looked up): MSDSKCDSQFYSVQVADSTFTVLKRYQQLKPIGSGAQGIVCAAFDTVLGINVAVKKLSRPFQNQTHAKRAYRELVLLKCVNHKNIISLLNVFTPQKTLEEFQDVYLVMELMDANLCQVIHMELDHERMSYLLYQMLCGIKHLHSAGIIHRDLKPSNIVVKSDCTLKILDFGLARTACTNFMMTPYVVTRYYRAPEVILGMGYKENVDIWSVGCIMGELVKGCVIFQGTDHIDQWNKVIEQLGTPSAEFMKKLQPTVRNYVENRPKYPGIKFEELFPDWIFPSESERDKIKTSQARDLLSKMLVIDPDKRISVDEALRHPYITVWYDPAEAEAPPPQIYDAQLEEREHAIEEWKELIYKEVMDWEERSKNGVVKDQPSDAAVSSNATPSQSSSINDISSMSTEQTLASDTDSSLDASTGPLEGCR
Sequence of Ribosomal protein S6 kinase alpha-3 (Homo sapiens) (P51812 whole entry): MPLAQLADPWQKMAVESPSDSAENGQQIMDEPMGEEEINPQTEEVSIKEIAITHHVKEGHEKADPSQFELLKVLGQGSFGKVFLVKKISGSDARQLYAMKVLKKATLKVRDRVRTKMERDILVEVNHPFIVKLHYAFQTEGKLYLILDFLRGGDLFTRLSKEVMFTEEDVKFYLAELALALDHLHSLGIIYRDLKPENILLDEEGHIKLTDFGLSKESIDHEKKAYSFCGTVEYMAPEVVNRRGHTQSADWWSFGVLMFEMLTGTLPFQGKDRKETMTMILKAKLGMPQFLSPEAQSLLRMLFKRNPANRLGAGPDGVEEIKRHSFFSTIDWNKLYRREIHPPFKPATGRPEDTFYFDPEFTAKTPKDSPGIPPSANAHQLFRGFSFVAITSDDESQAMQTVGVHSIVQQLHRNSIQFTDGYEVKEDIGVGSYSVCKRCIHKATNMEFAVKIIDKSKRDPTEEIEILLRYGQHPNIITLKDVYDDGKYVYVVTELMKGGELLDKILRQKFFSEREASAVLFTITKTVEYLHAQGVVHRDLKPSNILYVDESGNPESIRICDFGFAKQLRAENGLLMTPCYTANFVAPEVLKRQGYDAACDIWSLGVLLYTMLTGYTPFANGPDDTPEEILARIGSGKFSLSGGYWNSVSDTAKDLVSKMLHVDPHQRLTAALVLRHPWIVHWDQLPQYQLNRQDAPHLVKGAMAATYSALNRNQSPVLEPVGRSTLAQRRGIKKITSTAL
Sequence of Rho-associated protein kinase 2 (Homo sapiens) (O75116 whole entry, looked up): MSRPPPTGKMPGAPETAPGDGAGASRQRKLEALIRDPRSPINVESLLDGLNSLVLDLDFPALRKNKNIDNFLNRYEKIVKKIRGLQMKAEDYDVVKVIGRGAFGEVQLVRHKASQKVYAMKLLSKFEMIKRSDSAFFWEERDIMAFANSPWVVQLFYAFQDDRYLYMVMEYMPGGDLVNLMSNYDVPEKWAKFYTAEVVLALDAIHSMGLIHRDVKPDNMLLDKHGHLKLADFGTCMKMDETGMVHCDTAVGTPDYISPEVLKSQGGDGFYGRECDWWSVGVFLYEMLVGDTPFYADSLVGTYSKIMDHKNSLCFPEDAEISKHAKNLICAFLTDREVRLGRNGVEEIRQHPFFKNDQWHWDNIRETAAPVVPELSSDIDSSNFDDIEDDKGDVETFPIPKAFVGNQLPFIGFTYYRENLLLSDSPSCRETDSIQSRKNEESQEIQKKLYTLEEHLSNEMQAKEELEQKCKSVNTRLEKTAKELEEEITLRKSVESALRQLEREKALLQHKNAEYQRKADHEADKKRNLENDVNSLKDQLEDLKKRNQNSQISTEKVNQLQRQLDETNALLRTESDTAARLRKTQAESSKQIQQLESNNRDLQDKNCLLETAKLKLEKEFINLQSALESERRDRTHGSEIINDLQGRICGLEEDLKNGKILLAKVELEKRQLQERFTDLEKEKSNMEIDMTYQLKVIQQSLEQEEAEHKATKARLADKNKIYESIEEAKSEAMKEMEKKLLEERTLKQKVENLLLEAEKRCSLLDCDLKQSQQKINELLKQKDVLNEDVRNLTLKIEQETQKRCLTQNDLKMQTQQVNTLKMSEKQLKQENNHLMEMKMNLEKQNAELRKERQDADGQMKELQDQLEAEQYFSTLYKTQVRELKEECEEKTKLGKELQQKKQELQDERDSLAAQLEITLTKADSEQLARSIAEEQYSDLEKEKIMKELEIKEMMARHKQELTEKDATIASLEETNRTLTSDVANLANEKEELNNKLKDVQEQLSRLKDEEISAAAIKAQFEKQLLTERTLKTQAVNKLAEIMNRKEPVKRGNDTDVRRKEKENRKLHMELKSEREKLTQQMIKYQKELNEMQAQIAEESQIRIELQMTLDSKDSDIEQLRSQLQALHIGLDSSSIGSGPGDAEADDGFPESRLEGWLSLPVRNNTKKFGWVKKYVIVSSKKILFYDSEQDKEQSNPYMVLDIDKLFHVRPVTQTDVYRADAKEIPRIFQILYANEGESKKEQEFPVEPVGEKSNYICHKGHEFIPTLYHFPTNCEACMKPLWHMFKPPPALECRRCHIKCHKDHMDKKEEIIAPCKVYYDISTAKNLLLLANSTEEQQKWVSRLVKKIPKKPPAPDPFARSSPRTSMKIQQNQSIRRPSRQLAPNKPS

SMILES: Nc1cnc(N2CCc3cc(S(=O)(=O)Nc4c(F)cc(Cl)cc4F)cc(N4CCCC4=O)c32)nc1
- residual activity [1]: 85%
- residual activity [2]: 100%
- residual activity [3]: 96%
- residual activity [4]: 100%
- residual activity [5]: 100%
- residual activity [6]: 100%
- residual activity [7]: 100%
- residual activity [8]: 86%
- residual activity [9]: 100%
- residual activity [10]: 95%
- residual activity [11]: 93%
- residual activity [12]: 88%
- inhibition [13]: 20.2%
- residual activity [14]: 90%
- residual activity [15]: 78%
- residual activity [16]: 75%
- residual activity [17]: 86%
- residual activity [18]: 100%
- inhibition [19]: 0.99%
- inhibition [20]: 14.9%
- residual activity [21]: 91%
- residual activity [22]: 90%
- residual activity [23]: 100%
- residual activity [24]: 100%
- residual activity [25]: 100%
- residual activity [26]: 100%
- residual activity [27]: 100%
- residual activity [28]: 80%
- residual activity [29]: 77%
- residual activity [30]: 100%
- residual activity [31]: 92%
- residual activity [32]: 89%
- residual activity [33]: 97%
- residual activity [34]: 100%
- residual activity [35]: 100%
- residual activity [36]: 84%
- residual activity [37]: 98%
- residual activity [38]: 91%
- residual activity [39]: 100%
- residual activity [40]: 100%
- residual activity [41]: 100%
- residual activity [42]: 100%
- inhibition [43]: 20.5%
- residual activity [44]: 100%

SMILES: Cn1nc(C(F)(F)F)cc1-c1cnc(N2CCc3cc(S(=O)(=O)Nc4c(F)cc(Cl)cc4F)cc(N4CCCC4=O)c32)nc1 [TP-020]
- residual activity [1]: 95%
- residual activity [2]: 85%
- residual activity [3]: 32%
- residual activity [4]: 68%
- residual activity [5]: 100%
- residual activity [6]: 75%
- residual activity [7]: 90%
- residual activity [8]: 87%
- residual activity [9]: 100%
- residual activity [10]: 94%
- residual activity [11]: 79%
- residual activity [12]: 95%
- inhibition [13]: 14.5%
- residual activity [14]: 94%
- residual activity [15]: 100%
- residual activity [16]: 100%
- residual activity [17]: 96%
- residual activity [18]: 100%
- inhibition [19]: 18.5%
- inhibition [20]: 14.6%
- residual activity [21]: 100%
- residual activity [22]: 100%
- residual activity [23]: 94%
- residual activity [24]: 65%
- residual activity [25]: 89%
- residual activity [26]: 100%
- residual activity [27]: 79%
- residual activity [28]: 84%
- residual activity [29]: 97%
- residual activity [30]: 74%
- residual activity [31]: 100%
- residual activity [32]: 86%
- residual activity [33]: 70%
- residual activity [34]: 100%
- residual activity [35]: 95%
- residual activity [36]: 95%
- residual activity [37]: 100%
- residual activity [38]: 87%
- residual activity [39]: 100%
- residual activity [40]: 74%
- residual activity [41]: 99%
- residual activity [42]: 100%
- inhibition [43]: 7.89%
- residual activity [44]: 89%
